Measured values as given in patent publication US9708336B2, “Metallo-beta-lactamase inhibitors” (priority 2014, dated 2017).
Like-named read-outs stand apart in the source and are kept apart here.

Experiments:
IMP-1 = IMP-1 (Serratia marcescens, UniProt P52699); test: biochemical; assay type: biochemical; conditions: IMP-1 enzyme, CCF2-FA fluorescence assay; read-out: IMP-1 IC50
NDM-1 = NDM-1 (Klebsiella pneumoniae, UniProt C7C422); test: biochemical; assay type: biochemical; conditions: NDM-1 enzyme, CCF2-FA fluorescence assay; read-out: NDM-1 IC50
Chain of NDM-1 (C7C422 whole entry, looked up, species assumed): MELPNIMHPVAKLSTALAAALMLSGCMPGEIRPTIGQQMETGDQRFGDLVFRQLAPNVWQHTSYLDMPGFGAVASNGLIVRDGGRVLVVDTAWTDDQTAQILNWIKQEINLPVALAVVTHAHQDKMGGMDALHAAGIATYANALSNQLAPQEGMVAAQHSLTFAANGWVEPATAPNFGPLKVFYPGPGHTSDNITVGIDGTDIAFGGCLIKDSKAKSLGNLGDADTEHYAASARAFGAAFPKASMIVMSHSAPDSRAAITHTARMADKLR

[1] = test system: Serratia marcescens expressing IMP-1 (CL5741); test: Antibiotic potentiation activity: synergistic concentration (MITC95) with imipenem, OD600 growth; assay type: cell-based; conditions: Serratia marcescens expressing IMP-1 (CL5741), 95% growth inhibition
Procedure, shortened: (§1)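 Inoculum: saline suspension of overnight colonies, 1:100 into 1.1× CAMHB. Imipenem 4 μg/ml final (alt. 1 μg/ml) + compound; 35 °C, 22–24 h; absorbance read-out.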

[2] = test system: Klebsiella pneumoniae expressing VIM-1 (IHMA599644); test: as above; assay type: cell-based; conditions: Klebsiella pneumoniae expressing VIM-1 (IHMA599644), 95% growth inhibition
Procedure, shortened: as §1

[3] = test system: Escherichia coli expressing NDM-1 (CLB30016); test: as above; assay type: cell-based; conditions: Escherichia coli expressing NDM-1 (CLB30016), 95% growth inhibition
Procedure, shortened: as §1

VIM-1 = VIM-1 (Pseudomonas aeruginosa (strain ATCC 15692 / DSM 22644 / CIP 104116 / JCM 14847 / LMG 12228 / 1C / PRS 101 / PAO1), UniProt A0A0F7KYQ8); test: Enzyme activity: determination of IC50, fluorescence assay with CCF2-FA substrate (VIM-1); assay type: biochemical; conditions: CCF2-FA fluorescence assay
[4] = VIM-1 enzyme, read-out: VIM-1 IC50

Chain of IMP-1 (P52699 whole entry, looked up): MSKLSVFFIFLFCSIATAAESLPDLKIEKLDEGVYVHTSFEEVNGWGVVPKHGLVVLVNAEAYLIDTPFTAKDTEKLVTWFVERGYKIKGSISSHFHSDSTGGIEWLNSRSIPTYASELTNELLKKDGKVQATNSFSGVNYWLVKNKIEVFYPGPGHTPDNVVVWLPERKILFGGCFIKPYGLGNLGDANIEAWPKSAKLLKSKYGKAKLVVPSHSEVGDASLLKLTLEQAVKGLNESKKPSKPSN

## Nc1nc2c(-c3ccc(C(F)(F)F)c(S(N)(=O)=O)c3-c3nnn[nH]3)cccc2s1 [Example 423, 3-(2-amino-1,3-benzothiazol-4-yl)-2-(2H-tetrazol-5-yl)-6-(trifluoromethyl)benzenesulfonamide]
IMP-1
  IC50: 1.29 nM
NDM-1
  IC50: 0.378 nM
[1]
  Serratia marcescens MITC95: 0.125 µM
[2]
  Klebsiella pneumoniae MITC95: 3.125 µM
[3]
  Escherichia coli MITC95: 1.086 µM
VIM-1; [4]
  IC50: 0.711 nM

## Nc1ncc(-c2ccc(Br)c(S(N)(=O)=O)c2-c2nn[nH]n2)s1 [Example 424, 3-(2-aminothiazol-5-yl)-6-bromo-2-(2H-tetrazol-5-yl)benzenesulfonamide]
IMP-1
  IC50: 80.8 nM
NDM-1
  IC50: 18.9 nM
[1]
  Serratia marcescens MITC95: 1.563 µM
[2]
  Klebsiella pneumoniae MITC95: 15.63 µM
[3]
  Escherichia coli MITC95: 0.7813 µM
VIM-1; [4]
  IC50: 32.7 nM

## N=CNCc1ccc(-c2ccc(Br)c(S(N)(=O)=O)c2-c2nn[nH]n2)cc1 [Example 425, N-((4′-bromo-3′-sulfamoyl-2′-(2H-tetrazol-5-yl)-[1,1′-biphenyl]-4-yl)methyl)formimidamide]
IMP-1
  IC50: 15.9 nM
NDM-1
  IC50: 13.5 nM
[1]
  Serratia marcescens MITC95: 0.5859 µM
[2]
  Klebsiella pneumoniae MITC95: 1.563 µM
[3]
  Escherichia coli MITC95: 0.3906 µM
VIM-1; VIM-1 IC50, VIM-1 enzyme
  IC50: 4.07 nM

## NS(=O)(=O)c1cccc(-c2ccc(NCCO)nc2)c1-c1nn[nH]n1 [Example 426, 3-(6-((2-hydroxyethyl)amino)pyridin-3-yl)-2-(2H-tetrazol-5-yl)benzenesulfonamide]
IMP-1
  IC50: 353 nM
NDM-1
  IC50: 9.28 nM
[1]
  Serratia marcescens MITC95: 9.375 µM
[2]
  Klebsiella pneumoniae MITC95: 25 µM
[3]
  Escherichia coli MITC95: 0.4063 µM
VIM-1; [4]
  IC50: 260 nM

## Nc1ccc(CCc2cccc(S(N)(=O)=O)c2-c2nn[nH]n2)cn1 [Example 427, 3-(2-(6-aminopyridin-3-yl)ethyl)-2-(2H-tetrazol-5-yl)benzenesulfonamide]
IMP-1
  IC50: 109 nM
NDM-1
  IC50: 29.8 nM
[1]
  Serratia marcescens MITC95: 4.688 µM
[2]
  Klebsiella pneumoniae MITC95: 75 µM
[3]
  Escherichia coli MITC95: 0.25 µM
VIM-1; [4]
  IC50: 450 nM

## Nc1nc2cccc(-c3cccc(S(N)(=O)=O)c3-c3nn[nH]n3)c2[nH]1 [Example 428, 3-(2-amino-1H-benzo[d]imidazol-7-yl)-2-(2H-tetrazol-5-yl)benzenesulfonamide]
IMP-1
  IC50: 345 nM
NDM-1
  IC50: 0.683 nM
[1]
  Serratia marcescens MITC95: 6.25 µM
[2]
  Klebsiella pneumoniae MITC95: 1.531 µM
[3]
  Escherichia coli MITC95: 0.0625 µM
VIM-1; [4]
  IC50: 17.3 nM

## Nc1nc2ccc(-c3cccc(S(N)(=O)=O)c3-c3nn[nH]n3)cc2[nH]1 [Example 429]
IMP-1
  IC50: 499 nM
NDM-1
  IC50: 2.58 nM
[1]
  Serratia marcescens MITC95: 6.25 µM
[2]
  Klebsiella pneumoniae MITC95: 2.344 µM
[3]
  Escherichia coli MITC95: 0.0625 µM
VIM-1; [4]
  IC50: 30 nM

## NS(=O)(=O)c1c(-c2ccc(C3CCNCC3)cc2)ccc(-c2ccc(C3CCNCC3)cc2)c1-c1nn[nH]n1 [Example 430, 3,6-bis[4-(4-piperidyl)phenyl]-2-(2H-tetrazol-5-yl)benzenesulfonamide]
IMP-1
  IC50: 6.38 nM
NDM-1
  IC50: 52.3 nM
[1]
  Serratia marcescens MITC95: 0.3906 µM
[2]
  Klebsiella pneumoniae MITC95: 3.125 µM
[3]
  Escherichia coli MITC95: 1.563 µM
VIM-1; VIM-1 IC50, VIM-1 enzyme
  IC50: 50.8 nM

## NS(=O)(=O)c1c(C(F)(F)F)ccc(CC[C@H]2CC[C@H](N)CC2)c1-c1nn[nH]n1 [Example 431, 3-(2-((1r,4s)-4-aminocyclohexyl)ethyl)-2-(2H-tetrazol-5-yl)-6-(trifluoromethyl)benzenesulfonamide]
IMP-1
  IC50: 3.75 nM
NDM-1
  IC50: 17.9 nM
[1]
  Serratia marcescens MITC95: 0.125 µM
[2]
  Klebsiella pneumoniae MITC95: 1.531 µM
[3]
  Escherichia coli MITC95: 2.563 µM
VIM-1; [4]
  IC50: 0.432 nM

## NS(=O)(=O)c1c(C(F)(F)F)ccc(CC[C@H]2CC[C@@H](N)CC2)c1-c1nn[nH]n1 [Example 432, 3-(2-((1s,4r)-4-aminocyclohexyl)ethyl)-2-(2H-tetrazol-5-yl)-6-(trifluoromethyl)benzenesulfonamide]
IMP-1
  IC50: 11.7 nM
NDM-1
  IC50: 47.9 nM
[1]
  Serratia marcescens MITC95: 0.3906 µM
[2]
  Klebsiella pneumoniae MITC95: 18.75 µM
[3]
  Escherichia coli MITC95: 6.25 µM
VIM-1; [4]
  IC50: 4.72 nM

## NS(=O)(=O)c1c(C(F)(F)F)ccc(-c2ccc(C3CNC3)cc2)c1-c1nn[nH]n1 [Example 433, 4′-(azetidin-3-yl)-2-(2H-tetrazol-5-yl)-4-(trifluoromethyl)-[1,1′-biphenyl]-3-sulfonamide]
IMP-1
  IC50: 0.563 nM
NDM-1
  IC50: 0.875 nM
[1]
  Serratia marcescens MITC95: 0.1875 µM
[2]
  Klebsiella pneumoniae MITC95: 0.7656 µM
[3]
  Escherichia coli MITC95: 0.6406 µM
VIM-1; [4]
  IC50: 0.984 nM

## N=C(N)N1CC(c2ccc(-c3ccc(C(F)(F)F)c(S(N)(=O)=O)c3-c3nn[nH]n3)cc2)C1 [Example 434, 3-(3′-sulfamoyl-2′-(2H-tetrazol-5-yl)-4′-(trifluoromethyl)-[1,1′-biphenyl]-4-yl)azetidine-1-carboximidamide]
IMP-1
  IC50: 1.85 nM
NDM-1
  IC50: 1.78 nM
[1]
  Serratia marcescens MITC95: 0.09375 µM
[2]
  Klebsiella pneumoniae MITC95: 0.7656 µM
[3]
  Escherichia coli MITC95: 0.543 µM
VIM-1; [4]
  IC50: 0.175 nM

## C[N+]1(C)CC(c2ccc(-c3ccc(C(F)(F)F)c(S(N)(=O)=O)c3-c3nn[nH]n3)cc2)C1 [Example 435, 1,1-dimethyl-3-(3′-sulfamoyl-2′-(2H-tetrazol-5-yl)-4′-(trifluoromethyl)-[1,1′-biphenyl]-4-yl)azetidin-1-ium]
IMP-1
  IC50: 11.1 nM
NDM-1
  IC50: 12 nM
[1]
  Serratia marcescens MITC95: 0.25 µM
[2]
  Klebsiella pneumoniae MITC95: 3.125 µM
[3]
  Escherichia coli MITC95: 1.281 µM
VIM-1; [4]
  IC50: 2.37 nM

## NC1(c2ccc(-c3ccc(C(F)(F)F)c(S(N)(=O)=O)c3-c3nn[nH]n3)cc2)CCNCC1 [Example 436, 4′-(4-aminopiperidin-4-yl)-2-(2H-tetrazol-5-yl)-4-(trifluoromethyl)-[1,1′-biphenyl]-3-sulfonamide]
IMP-1
  IC50: 12.8 nM
NDM-1
  IC50: 9.32 nM
[1]
  Serratia marcescens MITC95: 0.2552 µM
[2]
  Klebsiella pneumoniae MITC95: 0.8542 µM
[3]
  Escherichia coli MITC95: 0.375 µM
VIM-1; [4]
  IC50: 3.04 nM

## N=CN1CCC(N)(c2ccc(-c3ccc(C(F)(F)F)c(S(N)(=O)=O)c3-c3nn[nH]n3)cc2)CC1 [Example 437, 4′-(4-amino-1-(iminomethyl)piperidin-4-yl)-2-(2H-tetrazol-5-yl)-4-(trifluoromethyl)-[1,1′-biphenyl]-3-sulfonamide]
IMP-1
  IC50: 7.82 nM
NDM-1
  IC50: 7.95 nM
[1]
  Serratia marcescens MITC95: 0.3906 µM
[2]
  Klebsiella pneumoniae MITC95: 3.125 µM
[3]
  Escherichia coli MITC95: 0.3906 µM
VIM-1; [4]
  IC50: 8 nM

## N=C(N)N1CCC(N)(c2ccc(-c3ccc(C(F)(F)F)c(S(N)(=O)=O)c3-c3nn[nH]n3)cc2)CC1 [Example 438, 4-amino-4-(3′-sulfamoyl-2′-(2H-tetrazol-5-yl)-4′-(trifluoromethyl)-[1,1′-biphenyl]-4-yl)piperidine-1-carboximidamide]
IMP-1
  IC50: 4.05 nM
NDM-1
  IC50: 3.67 nM
[1]
  Serratia marcescens MITC95: 0.25 µM
[2]
  Klebsiella pneumoniae MITC95: 2.563 µM
[3]
  Escherichia coli MITC95: 0.125 µM
VIM-1; VIM-1 IC50, VIM-1 enzyme
  IC50: 10.8 nM

## NCc1ccc(-c2ccc(C(F)(F)F)c(S(N)(=O)=O)c2-c2nn[nH]n2)cc1 [Example 439, 4′-(aminomethyl)-2-(2H-tetrazol-5-yl)-4-(trifluoromethyl)-[1,1′-biphenyl]-3-sulfonamide]
IMP-1
  IC50: 20.6 nM
NDM-1
  IC50: 11.9 nM
[1]
  Serratia marcescens MITC95: 0.5859 µM
[2]
  Klebsiella pneumoniae MITC95: 1.563 µM
[3]
  Escherichia coli MITC95: 0.7813 µM
VIM-1; [4]
  IC50: 4.05 nM

## N=C(N)NCc1ccc(-c2ccc(C(F)(F)F)c(S(N)(=O)=O)c2-c2nn[nH]n2)cc1 [Example 440, 4′-(guanidinomethyl)-2-(2H-tetrazol-5-yl)-4-(trifluoromethyl)-[1,1′-biphenyl]-3-sulfonamide]
IMP-1
  IC50: 3.37 nM
NDM-1
  IC50: 3.91 nM
[1]
  Serratia marcescens MITC95: 0.0625 µM
[2]
  Klebsiella pneumoniae MITC95: 0.7656 µM
[3]
  Escherichia coli MITC95: 0.25 µM
VIM-1; [4]
  IC50: 0.357 nM

## NS(=O)(=O)c1c(C(F)(F)F)ccc(-c2ccc3c(c2)CNC3)c1-c1nn[nH]n1 [Example 441, 3-(isoindolin-5-yl)-2-(2H-tetrazol-5-yl)-6-(trifluoromethyl)benzenesulfonamide]
IMP-1
  IC50: 22.1 nM
NDM-1
  IC50: 11.3 nM
[1]
  Serratia marcescens MITC95: 1.563 µM
[2]
  Klebsiella pneumoniae MITC95: 0.7813 µM
[3]
  Escherichia coli MITC95: 1.172 µM
VIM-1; [4]
  IC50: 0.838 nM

## NC1Cc2ccc(-c3ccc(C(F)(F)F)c(S(N)(=O)=O)c3-c3nn[nH]n3)cc2C1 (stereo not drawn) [Example 442, 3-(2-amino-2,3-dihydro-1H-inden-5-yl)-2-(2H-tetrazol-5-yl)-6-(trifluoromethyl)benzenesulfonamide]
IMP-1
  IC50: 16.5 nM
NDM-1
  IC50: 11.8 nM
[1]
  Serratia marcescens MITC95: 0.5859 µM
[2]
  Klebsiella pneumoniae MITC95: 0.7813 µM
[3]
  Escherichia coli MITC95: 1.172 µM
VIM-1; [4]
  IC50: 0.268 nM
